Experimental data taken from patent US4618612A (Medosan Industrie Biochimiche Riunite S.p.A., priority 1983, dated 1986).

Tests used:
[1] = tested on: rat platelet-rich plasma (ADP-induced platelet aggregation); assay: Anti-platelet aggregation activity in vitro (Born's method), rat platelet-rich plasma, ADP-induced; assay type: cell-based; details: dose 1 V/ml (Table II)
Method: Preparations (A), (B), (C), (D), (E) and (F) were administered "in vivo" orally and/or parenterally in 0.5% carboxymethylcellulose suspensions in physiological saline at neutral pH. When tested "in vitro", they were finely dispersed in neutral pH physiological saline.
This was studied "in vitro" following Born's method (Born G. W. R., Nature, 194, 937 (1962)) and inducing platelet aggregation with ADP.
Platelet-rich plasma was obtained by centrifugation for 10 minutes at 2,000 rpm of 9 parts rat blood to 1 part 3.13% sodium citrate solution. In performing the aggregation test, 0.2 ml of platelet rich plasm was mixed with a 0.9% NaCl solution to which the test substance was added to a final volume of 0.6 ml; the resulting mixture was incubated at 27° C. for 3 minutes. After inducement with ADP, aggregation was measured continuously with an Elvi 840 Aggregometer (Elvi Logos-Milan) to follow its course. The anti-aggregant effects were determined from the difference in the light transmission of the sample with respect to an ADP control.
Table I reports the platelet aggregation inhibition using different doses of the test compounds at a constant ADP concentration.

carragenin-induced edema = assay: Carragenin-induced edema test (Winter); assay type: in vivo, rat
Method: This effect was measured with an experimental model reproducing acute inflammation in rats: the carragenin-induced edema test according to C.

in vivo [2] = details: mouse, mice
in vivo [3] = details: rat, rats

Cc1ccc(C(=O)c2ccc(CC(=O)NCC(=O)OCCn3cnc4c3c(=O)n(C)c(=O)n4C)n2C)cc1 [(E)]
% Inhibition ([1]; ADP 2 μmol/l): 35%
% Inhibition ([1]; ADP 5 μmol/l): 29%
% Edema Inhibition (carragenin-induced edema; I.P., 10 mg/kg, 3 h): 31,8%
% Edema Inhibition (carragenin-induced edema; I.P., 10 mg/kg, 6 h): 29,0%
% Edema Inhibition (carragenin-induced edema; I.P., 10 mg/kg, 24 h): 0,0%
% Edema Inhibition (carragenin-induced edema; I.P., 50 mg/kg, 3 h): 56,9%
% Edema Inhibition (carragenin-induced edema; I.P., 50 mg/kg, 6 h): 54,8%
% Edema Inhibition (carragenin-induced edema; I.P., 50 mg/kg, 24 h): 12,0%
% Edema Inhibition (carragenin-induced edema; I.P., 100 mg/kg, 3 h): 80,0%
% Edema Inhibition (carragenin-induced edema; I.P., 100 mg/kg, 6 h): 76,9%
% Edema Inhibition (carragenin-induced edema; I.P., 100 mg/kg, 24 h): 23,0%
% Edema Inhibition (carragenin-induced edema; OS, 10 mg/kg, 3 h): 34,0%
% Edema Inhibition (carragenin-induced edema; OS, 10 mg/kg, 6 h): 33,8%
% Edema Inhibition (carragenin-induced edema; OS, 10 mg/kg, 24 h): 0,0%
% Edema Inhibition (carragenin-induced edema; OS, 50 mg/kg, 3 h): 54,4%
% Edema Inhibition (carragenin-induced edema; OS, 50 mg/kg, 6 h): 49,8%
% Edema Inhibition (carragenin-induced edema; OS, 50 mg/kg, 24 h): 10,0%
% Edema Inhibition (carragenin-induced edema; OS, 100 mg/kg, 3 h): 78,8%
% Edema Inhibition (carragenin-induced edema; OS, 100 mg/kg, 6 h): 79,0%
% Edema Inhibition (carragenin-induced edema; OS, 100 mg/kg, 24 h): 32,6%
LD50 (in vivo [2]; ip, I.P.): 1100 mg/kg
LD50 (in vivo [2]; po, OS): 1400 mg/kg
LD50 (in vivo [3]; ip, I.P.): 987 mg/kg
LD50 (in vivo [3]; po, OS): 1340 mg/kg

Cc1ccc(C(=O)c2ccc(CC(=O)OC(Cn3cnc4c3c(=O)n(C)c(=O)n4C)Cn3cnc4c3c(=O)n(C)c(=O)n4C)n2C)cc1 [(F)]
% Inhibition ([1]; ADP 2 μmol/l): 32%
% Inhibition ([1]; ADP 5 μmol/l): 23%
% Edema Inhibition (carragenin-induced edema; I.P., 10 mg/kg, 3 h): 43,8%
% Edema Inhibition (carragenin-induced edema; I.P., 10 mg/kg, 6 h): 34,8%
% Edema Inhibition (carragenin-induced edema; I.P., 10 mg/kg, 24 h): 0,0%
% Edema Inhibition (carragenin-induced edema; I.P., 50 mg/kg, 3 h): 56,0%
% Edema Inhibition (carragenin-induced edema; I.P., 50 mg/kg, 6 h): 33,0%
% Edema Inhibition (carragenin-induced edema; I.P., 50 mg/kg, 24 h): 0,0%
% Edema Inhibition (carragenin-induced edema; I.P., 100 mg/kg, 3 h): 78,6%
% Edema Inhibition (carragenin-induced edema; I.P., 100 mg/kg, 6 h): 65,6%
% Edema Inhibition (carragenin-induced edema; I.P., 100 mg/kg, 24 h): 15,8%
% Edema Inhibition (carragenin-induced edema; OS, 10 mg/kg, 3 h): 23,9%
% Edema Inhibition (carragenin-induced edema; OS, 10 mg/kg, 6 h): 24,0%
% Edema Inhibition (carragenin-induced edema; OS, 10 mg/kg, 24 h): 0,0%
% Edema Inhibition (carragenin-induced edema; OS, 50 mg/kg, 3 h): 47,0%
% Edema Inhibition (carragenin-induced edema; OS, 50 mg/kg, 6 h): 46,0%
% Edema Inhibition (carragenin-induced edema; OS, 50 mg/kg, 24 h): 0,0%
% Edema Inhibition (carragenin-induced edema; OS, 100 mg/kg, 3 h): 66,0%
% Edema Inhibition (carragenin-induced edema; OS, 100 mg/kg, 6 h): 66,0%
% Edema Inhibition (carragenin-induced edema; OS, 100 mg/kg, 24 h): 12,0%
LD50 (in vivo [2]; ip, I.P.): 1240 mg/kg
LD50 (in vivo [2]; po, OS): 1680 mg/kg
LD50 (in vivo [3]; ip, I.P.): 1050 mg/kg
LD50 (in vivo [3]; po, OS): 1500 mg/kg
